# Reference: patent EP4549575A1 (priority 2023, dated 2025)
# Square brackets hold non-standard residues; d marks the D form. Peptide text beside a SMILES is read from it. * marks the point of attachment. hCys = N[C@@H](CCS)C(=O)O; βAla = NCCC(=O)O; CF3 = FC(F)(F)*
# Tested on: pronase
# Experiment: Stability towards proteolysis (pronase, LC-MS)
# Format: in vitro ADME, Streptomyces griseus
# Conditions: peptide 200 µM; protease 5 µg/mL; 37°C; pH 7.5
# Procedure: The evaluation of the stability of CP20 and Ac-LP20 towards proteolysis was tested at a peptide concentration of 200 µM using pronase (commercially available mixture of proteases isolated from the extracellular fluid of Streptomyces griseus, 2.5 µg/mg). Another peptide was added to this analysis, namely LP20 (without N-terminal acetylation), as it is easier to synthesize and to also assess the influence of N-terminal acetylation on the stability of LP20. Each peptide was tested in the presence of the protease (5 µg/mL) at 37°C in a buffer solution (50 mM Tris, 10 mM CaCl2, 150 mM NaCl, 0.05 % (w/v) Brij 35, pH 7.5) and its stability monitored by liquid chromatography coupled to mass spectrometry (LC-MS) at different time intervals (t=0 min, 10 min, 30 min, 1 h, 2 h). To stop enzyme activity, a small amount of the solution (60 µL) was transferred to an HPLC vial containing 6 µL of a 10% TFA solution at these different time points.
row,Compound,time of total proteolysis of the peptide
1,CSCC[C@H](NC(=O)[C@H](Cc1c[nH]c2ccccc12)NC(=O)[C@H](CCCNC(=N)N)NC(=O)CCN)C(=O)N[C@@H](CC(C)C)C(=O)N[C@H](C(=O)N[C@@H](Cc1ccc(O)cc1)C(=O)N[C@@H](CCCNC(=N)N)C(=O)N[C@@H](CCCNC(=N)N)C(N)=O)C(C)C [LP20] (H-[βAla]RWMLVYRR-NH2),10 min
2,CC(C)C[C@H](NC(=O)[C@H](CCCNC(=N)N)NC(=O)CNC(=O)CCN)C(=O)N[C@@H](CCCNC(=N)N)C(=O)N[C@@H](Cc1c[nH]c2ccccc12)C(=O)N[C@@H](CC(C)C)C(=O)N[C@@H](CCCNC(=N)N)C(=O)N[C@H](C(N)=O)C(C)C [LP32] (H-[βAla]GRLRWLRV-NH2),10 min

# Same assay, conditions: peptide 200 µM; protease 5 µg/mL; 37°C; pH 7.5; 0-2 h
row,Compound,stability against proteolysis
1,CSCC[C@H](NC(=O)[C@H](Cc1c[nH]c2ccccc12)NC(=O)[C@H](CCCNC(=N)N)NC(=O)CCN)C(=O)N[C@@H](CC(C)C)C(=O)N[C@H](C(=O)N[C@@H](Cc1ccc(O)cc1)C(=O)N[C@@H](CCCNC(=N)N)C(=O)N[C@@H](CCCNC(=N)N)C(N)=O)C(C)C [LP20] (H-[βAla]RWMLVYRR-NH2),Low stability
2,CC(C)C[C@H](NC(=O)[C@H](CCCNC(=N)N)NC(=O)CNC(=O)CCN)C(=O)N[C@@H](CCCNC(=N)N)C(=O)N[C@@H](Cc1c[nH]c2ccccc12)C(=O)N[C@@H](CC(C)C)C(=O)N[C@@H](CCCNC(=N)N)C(=O)N[C@H](C(N)=O)C(C)C [LP32] (H-[βAla]GRLRWLRV-NH2),low stability

# Tested on: P. infestans
# Experiment: not given
# Format: cell-based
# Conditions: 200 µM; P. infestans mycelium; peptidomimetics
row,Compound,PPI (%) ± Std. Dev.
1,"CC(C)C[C@H](NC(=O)[C@H](CCSC(F)(F)F)NC(=O)[C@H](Cc1c[nH]c2ccccc12)NC(=O)[C@H](CCCNC(=N)N)NC(=O)CCN)C(=O)N[C@H](C(=O)N[C@@H](Cc1ccc(O)cc1)C(=O)N[C@@H](CCCNC(=N)N)C(=O)N[C@@H](CCCNC(=N)N)C(N)=O)C(C)C [LR131, H2N-βA-RW-MCF3-LVYRR-CONH2] (H-[βAla]RW[hCys](CF3)LVYRR-NH2)",85.32 ± 5.19 (b) %
2,"CSCC[C@H](NC(=O)[C@@H](Cc1c[nH]c2ccccc12)NC(=O)[C@@H](CCCNC(=N)N)NC(=O)CCN)C(=O)N[C@@H](CC(C)C)C(=O)N[C@H](C(=O)N[C@H](Cc1ccc(O)cc1)C(=O)N[C@@H](CCCNC(=N)N)C(=O)N[C@H](CCCNC(=N)N)C(N)=O)C(C)C [LR202, H2N-βA-(D)R-(D)W-MLV-(D)Y-R-(D)R-CONH2] (H-[βAla][dR][dW]MLV[dY]R[dR]-NH2)",78.26 ± 0 (b) %
3,"CSCC[C@H](NC(=O)[C@@H](Cc1c[nH]c2ccccc12)NC(=O)[C@@H](CCCNC(=N)N)NC(=O)CCN)C(=O)N[C@@H](CC(C)C)C(=O)N[C@H](C(=O)N[C@H](Cc1ccc(O)cc1)C(=O)N[C@@H](CCCNC(=N)N)C(=O)N[C@@H](CCCNC(=N)N)C(N)=O)C(C)C [LR206, H2N-βA-(D)R-(D)W-MLV-(D)Y-RR-CONH2] (H-[βAla][dR][dW]MLV[dY]RR-NH2)",81.52 ± 5.47 (b) %
4,"H2N-βA-RWM-hL-VYRR-CONH2 (H-[βAla]RWMXVYRR-NH2; not fully specified (residue 5); printed as H2N-βA-RWM-hL-VYRR-CONH2) [LR193, hydrazino-Leu analogue]",79.35 ± 5.47 (b) %

# Same assay, conditions: 200 µM; P. infestans mycelium; solid medium; linear vs cyclic peptides (Figure 8)
row,Compound,PPI
1,CSCC[C@H](NC(=O)[C@H](Cc1c[nH]c2ccccc12)NC(=O)[C@H](CCCNC(=N)N)NC(=O)CCN)C(=O)N[C@@H](CC(C)C)C(=O)N[C@H](C(=O)N[C@@H](Cc1ccc(O)cc1)C(=O)N[C@@H](CCCNC(=N)N)C(=O)N[C@@H](CCCNC(=N)N)C(N)=O)C(C)C [LP20] (H-[βAla]RWMLVYRR-NH2),72.78%
2,CC(C)C[C@H](NC(=O)[C@H](CCCNC(=N)N)NC(=O)CNC(=O)CCN)C(=O)N[C@@H](CCCNC(=N)N)C(=O)N[C@@H](Cc1c[nH]c2ccccc12)C(=O)N[C@@H](CC(C)C)C(=O)N[C@@H](CCCNC(=N)N)C(=O)N[C@H](C(N)=O)C(C)C [LP32] (H-[βAla]GRLRWLRV-NH2),76.97%

# Same assay, conditions: Ala-scan of Ac-LP20 and CP20-Met-Ala; P. infestans mycelium in vitro
row,Compound,PPI (%) mycelium
1,"CSCC[C@H](NC(=O)[C@H](Cc1c[nH]c2ccccc12)NC(=O)[C@H](C)NC(=O)CCNC(C)=O)C(=O)N[C@@H](CC(C)C)C(=O)N[C@H](C(=O)N[C@@H](Cc1ccc(O)cc1)C(=O)N[C@@H](CCCNC(=N)N)C(=O)N[C@@H](CCCNC(=N)N)C(N)=O)C(C)C [Ac-LP20-Ala2, Ac-βA-AWMLVYRR-CONH2] (Ac-[βAla]AWMLVYRR-NH2)",38.75 ± 7.72%
2,"CSCC[C@H](NC(=O)[C@H](C)NC(=O)[C@H](CCCNC(=N)N)NC(=O)CCNC(C)=O)C(=O)N[C@@H](CC(C)C)C(=O)N[C@H](C(=O)N[C@@H](Cc1ccc(O)cc1)C(=O)N[C@@H](CCCNC(=N)N)C(=O)N[C@@H](CCCNC(=N)N)C(N)=O)C(C)C [Ac-LP20-Ala3, Ac-βA-RAMLVYRR-CONH2] (Ac-[βAla]RAMLVYRR-NH2)",100 ± 0%
3,"CSCC[C@H](NC(=O)[C@H](Cc1c[nH]c2ccccc12)NC(=O)[C@H](CCCNC(=N)N)NC(=O)CCNC(C)=O)C(=O)N[C@@H](C)C(=O)N[C@H](C(=O)N[C@@H](Cc1ccc(O)cc1)C(=O)N[C@@H](CCCNC(=N)N)C(=O)N[C@@H](CCCNC(=N)N)C(N)=O)C(C)C [Ac-LP20-Ala5, Ac-βA-RWMAVYRR-CONH2] (Ac-[βAla]RWMAVYRR-NH2)",70.73 ± 0%
4,"CSCC[C@H](NC(=O)[C@H](Cc1c[nH]c2ccccc12)NC(=O)[C@H](CCCNC(=N)N)NC(=O)CCNC(C)=O)C(=O)N[C@@H](CC(C)C)C(=O)N[C@@H](C)C(=O)N[C@@H](Cc1ccc(O)cc1)C(=O)N[C@@H](CCCNC(=N)N)C(=O)N[C@@H](CCCNC(=N)N)C(N)=O [Ac-LP20-Ala6, Ac-βA-RWMLAYRR-CONH2] (Ac-[βAla]RWMLAYRR-NH2)",62.2 ± 7.54%
5,"CSCC[C@H](NC(=O)[C@H](Cc1c[nH]c2ccccc12)NC(=O)[C@H](CCCNC(=N)N)NC(=O)CCNC(C)=O)C(=O)N[C@@H](CC(C)C)C(=O)N[C@H](C(=O)N[C@@H](C)C(=O)N[C@@H](CCCNC(=N)N)C(=O)N[C@@H](CCCNC(=N)N)C(N)=O)C(C)C [Ac-LP20-Ala7, Ac-βA-RWMLVARR-CONH2] (Ac-[βAla]RWMLVARR-NH2)",17.48 ± 12.34%
6,"CSCC[C@H](NC(=O)[C@H](Cc1c[nH]c2ccccc12)NC(=O)[C@H](CCCNC(=N)N)NC(=O)CCNC(C)=O)C(=O)N[C@@H](CC(C)C)C(=O)N[C@H](C(=O)N[C@@H](Cc1ccc(O)cc1)C(=O)N[C@@H](C)C(=O)N[C@@H](CCCNC(=N)N)C(N)=O)C(C)C [Ac-LP20-Ala8, Ac-βA-RWMLVYAR-CONH2] (Ac-[βAla]RWMLVYAR-NH2)",10.57 ± 9.49%
7,"CSCC[C@H](NC(=O)[C@H](Cc1c[nH]c2ccccc12)NC(=O)[C@H](CCCNC(=N)N)NC(=O)CCNC(C)=O)C(=O)N[C@@H](CC(C)C)C(=O)N[C@H](C(=O)N[C@@H](Cc1ccc(O)cc1)C(=O)N[C@@H](CCCNC(=N)N)C(=O)N[C@@H](C)C(N)=O)C(C)C [Ac-LP20-Ala9, Ac-βA-RWMLVYRA-CONH2] (Ac-[βAla]RWMLVYRA-NH2)",10.57 ± 9.49%

# Same assay, conditions: Ala-scan of Ac-LP32; P. infestans mycelium in vitro
row,Compound,PPI (%) micelio
1,"CC(=O)NCCC(=O)N[C@@H](C)C(=O)N[C@@H](CCCNC(=N)N)C(=O)N[C@@H](CC(C)C)C(=O)N[C@@H](CCCNC(=N)N)C(=O)N[C@@H](Cc1c[nH]c2ccccc12)C(=O)N[C@@H](CC(C)C)C(=O)N[C@@H](CCCNC(=N)N)C(=O)N[C@H](C(N)=O)C(C)C [Ac-LP32-Ala2, Ac-βA-ARLRWLRV-CONH2] (Ac-[βAla]ARLRWLRV-NH2)",74.81 ± 3.63%
2,"CC(=O)NCCC(=O)NCC(=O)N[C@@H](C)C(=O)N[C@@H](CC(C)C)C(=O)N[C@@H](CCCNC(=N)N)C(=O)N[C@@H](Cc1c[nH]c2ccccc12)C(=O)N[C@@H](CC(C)C)C(=O)N[C@@H](CCCNC(=N)N)C(=O)N[C@H](C(N)=O)C(C)C [Ac-LP32-Ala3, Ac-βA-GALRWLRV-CONH2] (Ac-[βAla]GALRWLRV-NH2)",58.78 ± 3.94%
3,"CC(=O)NCCC(=O)NCC(=O)N[C@@H](CCCNC(=N)N)C(=O)N[C@@H](C)C(=O)N[C@@H](CCCNC(=N)N)C(=O)N[C@@H](Cc1c[nH]c2ccccc12)C(=O)N[C@@H](CC(C)C)C(=O)N[C@@H](CCCNC(=N)N)C(=O)N[C@H](C(N)=O)C(C)C [Ac-LP32-Ala4, Ac-βA-GRARWLRV-CONH2] (Ac-[βAla]GRARWLRV-NH2)",56.49 ± 10.10%
4,"CC(=O)NCCC(=O)NCC(=O)N[C@@H](CCCNC(=N)N)C(=O)N[C@@H](CC(C)C)C(=O)N[C@@H](C)C(=O)N[C@@H](Cc1c[nH]c2ccccc12)C(=O)N[C@@H](CC(C)C)C(=O)N[C@@H](CCCNC(=N)N)C(=O)N[C@H](C(N)=O)C(C)C [Ac-LP32-Ala5, Ac-βA-GRLAWLRV-CONH2] (Ac-[βAla]GRLAWLRV-NH2)",40.46 ± 1.76%
5,"CC(=O)NCCC(=O)NCC(=O)N[C@@H](CCCNC(=N)N)C(=O)N[C@@H](CC(C)C)C(=O)N[C@@H](CCCNC(=N)N)C(=O)N[C@@H](C)C(=O)N[C@@H](CC(C)C)C(=O)N[C@@H](CCCNC(=N)N)C(=O)N[C@H](C(N)=O)C(C)C [Ac-LP32-Ala6, Ac-βA-GRLRALRV-CONH2] (Ac-[βAla]GRLRALRV-NH2)",54.20 ± 4.31%
6,"CC(=O)NCCC(=O)NCC(=O)N[C@@H](CCCNC(=N)N)C(=O)N[C@@H](CC(C)C)C(=O)N[C@@H](CCCNC(=N)N)C(=O)N[C@@H](Cc1c[nH]c2ccccc12)C(=O)N[C@@H](C)C(=O)N[C@@H](CCCNC(=N)N)C(=O)N[C@H](C(N)=O)C(C)C [Ac-LP32-Ala7, Ac-βA-GRLRWARV-CONH2] (Ac-[βAla]GRLRWARV-NH2)",59.29 ± 7.05%
7,"CC(=O)NCCC(=O)NCC(=O)N[C@@H](CCCNC(=N)N)C(=O)N[C@@H](CC(C)C)C(=O)N[C@@H](CCCNC(=N)N)C(=O)N[C@@H](Cc1c[nH]c2ccccc12)C(=O)N[C@@H](CC(C)C)C(=O)N[C@@H](C)C(=O)N[C@H](C(N)=O)C(C)C [Ac-LP32-Ala8, Ac-βA-GRLRWLAV-CONH2] (Ac-[βAla]GRLRWLAV-NH2)",17.56 ± 7.48%
8,"CC(=O)NCCC(=O)NCC(=O)N[C@@H](CCCNC(=N)N)C(=O)N[C@@H](CC(C)C)C(=O)N[C@@H](CCCNC(=N)N)C(=O)N[C@@H](Cc1c[nH]c2ccccc12)C(=O)N[C@@H](CC(C)C)C(=O)N[C@@H](CCCNC(=N)N)C(=O)N[C@@H](C)C(N)=O [Ac-LP32-Ala9, Ac-βA-GRLRWLRA-CONH2] (Ac-[βAla]GRLRWLRA-NH2)",19.85 ± 2.92%
